Several values for one entry are separate records, joined by “and”; a condition that tells them apart may be missing. Equal entries are not always repeated.
Experiments:
[1] = target: T1, Muscarinic acetylcholine receptor M1 (Homo sapiens, UniProt P11229)
T1 sequence (P11229 whole entry): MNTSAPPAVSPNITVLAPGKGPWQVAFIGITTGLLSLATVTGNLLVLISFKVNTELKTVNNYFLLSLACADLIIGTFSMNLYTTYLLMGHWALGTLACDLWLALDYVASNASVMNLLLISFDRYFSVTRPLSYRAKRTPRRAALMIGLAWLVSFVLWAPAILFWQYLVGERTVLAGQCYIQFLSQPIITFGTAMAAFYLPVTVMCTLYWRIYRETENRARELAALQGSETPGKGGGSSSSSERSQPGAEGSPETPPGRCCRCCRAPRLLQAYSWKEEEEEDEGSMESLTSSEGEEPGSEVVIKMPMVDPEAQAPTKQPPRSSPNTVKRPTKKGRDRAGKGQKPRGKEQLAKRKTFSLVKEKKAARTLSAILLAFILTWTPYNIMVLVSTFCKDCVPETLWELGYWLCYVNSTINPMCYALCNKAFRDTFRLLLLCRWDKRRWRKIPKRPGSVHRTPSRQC
Description: Displacement of [3H]pirenzepine from M1 receptor

[2] = target: Glutamate [NMDA] receptor
Description: Binding affinity against NMDA receptor by displacement of [3H]Ro-256981

[3] = target: T2, Adrenergic receptor alpha-1 (Homo sapiens, UniProt P35348+P25100+P35368); experiment: Displacement of [3H]prazosin from Alpha-1 adrenergic receptor; assay type: protein assay
T2 sequence (P35348 whole entry): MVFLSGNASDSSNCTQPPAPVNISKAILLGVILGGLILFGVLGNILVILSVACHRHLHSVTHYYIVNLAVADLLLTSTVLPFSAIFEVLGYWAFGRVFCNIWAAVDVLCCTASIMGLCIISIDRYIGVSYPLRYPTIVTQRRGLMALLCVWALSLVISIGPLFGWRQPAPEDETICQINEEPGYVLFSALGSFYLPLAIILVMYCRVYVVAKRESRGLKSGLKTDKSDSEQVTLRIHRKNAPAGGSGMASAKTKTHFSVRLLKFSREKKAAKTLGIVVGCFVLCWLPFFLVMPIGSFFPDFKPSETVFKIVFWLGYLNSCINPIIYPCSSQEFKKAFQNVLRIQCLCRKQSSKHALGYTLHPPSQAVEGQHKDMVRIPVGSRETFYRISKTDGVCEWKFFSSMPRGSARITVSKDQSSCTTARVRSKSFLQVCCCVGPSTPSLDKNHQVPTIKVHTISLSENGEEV
T2 sequence (P25100 whole entry): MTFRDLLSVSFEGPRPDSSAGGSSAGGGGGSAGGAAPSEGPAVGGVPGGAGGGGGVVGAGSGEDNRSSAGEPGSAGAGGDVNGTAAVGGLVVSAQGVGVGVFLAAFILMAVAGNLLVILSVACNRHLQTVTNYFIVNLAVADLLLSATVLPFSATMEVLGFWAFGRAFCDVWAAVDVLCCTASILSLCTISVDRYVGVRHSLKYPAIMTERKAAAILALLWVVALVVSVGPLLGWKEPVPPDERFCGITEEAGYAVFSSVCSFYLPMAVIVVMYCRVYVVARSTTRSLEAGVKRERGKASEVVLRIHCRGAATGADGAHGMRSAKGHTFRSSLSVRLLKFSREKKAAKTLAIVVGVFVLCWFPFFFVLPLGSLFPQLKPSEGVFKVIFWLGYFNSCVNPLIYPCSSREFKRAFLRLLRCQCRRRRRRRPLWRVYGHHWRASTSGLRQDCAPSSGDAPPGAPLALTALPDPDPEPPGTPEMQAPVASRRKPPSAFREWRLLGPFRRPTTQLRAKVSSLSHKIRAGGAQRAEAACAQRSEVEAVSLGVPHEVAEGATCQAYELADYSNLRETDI
T2 sequence (P35368 whole entry): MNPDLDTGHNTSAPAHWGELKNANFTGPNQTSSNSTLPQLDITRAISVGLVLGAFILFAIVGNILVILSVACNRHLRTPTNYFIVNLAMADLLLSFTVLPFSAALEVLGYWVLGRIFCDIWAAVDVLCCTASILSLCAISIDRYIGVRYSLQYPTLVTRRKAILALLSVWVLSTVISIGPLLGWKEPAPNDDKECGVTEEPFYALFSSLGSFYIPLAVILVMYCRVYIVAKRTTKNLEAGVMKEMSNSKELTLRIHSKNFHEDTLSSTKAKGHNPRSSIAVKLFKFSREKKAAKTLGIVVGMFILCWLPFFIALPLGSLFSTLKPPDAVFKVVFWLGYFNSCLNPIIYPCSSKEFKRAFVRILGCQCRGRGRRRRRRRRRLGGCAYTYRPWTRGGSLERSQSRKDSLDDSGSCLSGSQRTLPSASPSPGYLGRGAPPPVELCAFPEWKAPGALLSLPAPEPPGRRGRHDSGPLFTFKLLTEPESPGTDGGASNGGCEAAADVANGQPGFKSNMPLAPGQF

Mus musculus [4] = experiment: In vivo activity was measured in mice after ip administration using standard sound-induced seizures assay; assay type: functional
Mus musculus [5] = experiment: In vivo activity was measured i mice after ip administration using standard sound-induced seizures assay; assay type: functional

Description for physchem: Dissociation constant (pKa)

CNc1ccnc(N2CCc3ccccc3C2)c1
Ki [1]: 1.2 µM | Ki [2]: 0.008 µM and 0.019 µM | pKa (physchem): 8.8

Cc1cc(N)cc(N2CCc3ccccc3C2)n1
Ki [3]: 0.73 µM | Ki [1]: 2.6 µM | Ki [2]: 0.005 µM | pKa (physchem): 9

CCc1cc(N)cc(N2CCc3ccccc3C2)n1
Ki [3]: 0.67 µM | Ki [1]: 2.5 µM | Ki [2]: 0.003 µM | pKa (physchem): 9

Nc1ccnc(N2CCc3ccccc3C2)c1
Ki [3]: 1.2 µM | ED50 (Mus musculus [4]): 7 mg/kg | Ki [1]: 1.9 µM | Ki [2]: 0.003 µM | pKa (physchem): 8.5

CN(C)c1ccnc(N2CCc3ccccc3C2)c1
Ki [3]: 0.49 µM | Ki [1]: 0.15 µM | Ki [2]: 0.008 µM | pKa (physchem): 8.8

Cc1ccnc(N2CCc3ccccc3C2)c1
Ki [2]: 0.38 µM | pKa (physchem): 6.6

c1ccc(N2CCc3ccccc3C2)nc1
Ki [2]: 0.75 µM | pKa (physchem): 6.4

Cc1cc(N)nc(N2CCc3ccccc3C2)c1
Ki [2]: 0.11 µM | pKa (physchem): 6.5

Brc1ccc(N2CCc3ccccc3C2)nc1
Ki [2]: 7.5 µM | pKa (physchem): 3

Cc1cnc(N2CCc3ccccc3C2)cc1NCCO
Ki [3]: 3.2 µM | Ki [1]: 6.5 µM | Ki [2]: 0.008 µM | pKa (physchem): 9

CC(=O)Nc1ccnc(N2CCc3ccccc3C2)c1
Ki [2]: 0.38 µM | pKa (physchem): 6.5

Nc1cccc(N2CCc3ccccc3C2)n1
Ki [2]: 0.19 µM | pKa (physchem): 6

Cc1ccc(N2CCc3ccccc3C2)nc1
pKa (physchem): 6.5

Nc1cc(N2CCc3ccccc3C2)nc2c1CCC2
Ki [3]: 0.73 µM | Ki [1]: 0.51 µM | Ki [2]: 0.009 µM | pKa (physchem): 9.4

Cc1cnc(N2CCc3ccccc3C2)cc1N
Ki [3]: 1 µM | Ki [1]: 0.87 µM | Ki [2]: 0.004 µM | pKa (physchem): 8.7

Brc1cccc(N2CCc3ccccc3C2)n1
Ki [2]: 15 µM | pKa (physchem): 2

CCOC(=O)C(=O)Nc1cc(C)nc(N2CCc3ccccc3C2)c1
Ki [2]: 0.26 µM | pKa (physchem): 6.5

Cc1cc(NCCO)cc(N2CCc3ccccc3C2)n1
Ki [3]: 3.3 µM | Ki [1]: 3.8 µM | Ki [2]: 0.004 µM | pKa (physchem): 9.2

OCCNc1ccnc(N2CCc3ccccc3C2)c1
Ki [3]: 2.3 µM | ED50 (Mus musculus [4]): 13 mg/kg | Ki [1]: 6.1 µM | Ki [2]: 0.002 µM | pKa (physchem): 8.9

c1ccc(CNc2ccnc(N3CCc4ccccc4C3)c2)cc1
Ki [2]: 0.15 µM | pKa (physchem): 8.6

Nc1cccnc1N1CCc2ccccc2C1
Ki [2]: 0.38 µM | pKa (physchem): 5

Nc1ccc(N2CCc3ccccc3C2)nc1
Ki [2]: 1.1 µM | pKa (physchem): 5.8

Nc1cc(CO)nc(N2CCc3ccccc3C2)c1
Ki [3]: 1.7 µM | Ki [1]: 1.1 µM | Ki [2]: 0.004 µM | pKa (physchem): 8.1

OCCNc1cc(N2CCc3ccccc3C2)nc2ccccc12
ED50 (Mus musculus [5]): < 12 mg/kg | Ki [2]: 0.0035 µM

C[C@@H](CN1CCC(Cc2ccccc2)CC1)[C@@H](O)c1ccc(O)cc1 (single isomer, unassigned)
ED50 (Mus musculus [4]): 13 mg/kg | Ki [2]: 0.006 µM

C[C@@H]([C@@H](O)c1ccc(O)cc1)N1CCC(O)(c2ccccc2)CC1 [TRAXOPRODIL]
ED50 (Mus musculus [4]): 13 mg/kg

— ChEMBL document CHEMBL1136613, “2-(3,4-Dihydro-1H-isoquinolin-2yl)-pyridines as a novel class of NR1/2B subtype selective NMDA receptor antagonists” (Bioorg Med Chem Lett, 2003)
